From US20170002011A1, “BENZENE SULFONAMIDES AS CCR9 INHIBITORS” (NORGINE B.V., priority 2013, published 2017) come the findings set out here.

Molecules are shown by their SMILES. pKi: −log10 of the molar value.

The target of the assay is T1, CCR9 (Homo sapiens, UniProt P51686).
T1 sequence (P51686 1-369): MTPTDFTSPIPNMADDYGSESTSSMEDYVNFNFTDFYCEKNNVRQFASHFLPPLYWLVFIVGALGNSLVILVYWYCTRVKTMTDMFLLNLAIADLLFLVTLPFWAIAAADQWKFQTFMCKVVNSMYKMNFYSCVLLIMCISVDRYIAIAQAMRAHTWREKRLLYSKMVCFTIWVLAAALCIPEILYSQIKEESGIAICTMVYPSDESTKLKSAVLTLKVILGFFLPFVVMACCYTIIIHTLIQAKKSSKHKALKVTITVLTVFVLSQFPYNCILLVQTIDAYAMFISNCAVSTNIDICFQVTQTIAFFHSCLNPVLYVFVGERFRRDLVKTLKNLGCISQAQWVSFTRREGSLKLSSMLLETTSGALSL
Nature of the assay: FLIPR calcium flux assay using MOLT4 cells (TECK stimulation). In kind it is cell-based. Set-up: endogenous in cells; host or cells: MOLT4 (human T-cell line). To be noted: MOLT4 cells (a human T-cell line); Ki determined from IC50 of TECK-induced intracellular calcium increase. The method, then: Biological Activity: FLIPR Assay Using MOLT4 Cells
A calcium flux assay was used to determine the ability of the compounds to interfere with the binding between CCR9 and its chemokine ligand (TECK) in MOLT4 cells (a human T-cell line). MOLT4 cells were seeded (100,000 cells/well) in coming cell culture plates (Cat #3603) in assay buffer (lx HBSS, 20 mM HEPES) containing 2.5 mM Probenecid. The plate was centrifuged at 1200 rpm for 3 minutes and incubated at 37° C./5% CO2 for 2 hours. A 0.3× Fluo-4 NW calcium dye was prepared in assay buffer containing 5 mM Probenecid and stored in the dark. Each well was loaded with 25 μL of 0.3× Fluo-4 NW calcium dye and incubated at 37 C/5% CO2 for 60 minutes and then at room temperature for 30 minutes. A half-log serially diluted concentration response curve was prepared at a 4× concentration for each (10 μM-0.1 nM final assay concentration) and 25 μL of the compound then transferred to the cells (100 μL final volume) for 60 minutes prior to stimulation (30 minutes at 37° C./5% CO2 and 30 minutes at room temperature). TECK was diluted to 5× its EC50 in assay buffer (containing 0.1% [w/v] bovine serum albumin [BSA]) and 25 μL dispensed through the FLIPR instrument to stimulate the cells (125 μL final volume). The increased in intracellular calcium levels was measured with the FLIPR instrument. The potency of the compound as CCR9 antagonist was calculated as an IC50 using GraphPad Prism software (variable slope four parameter). The Ki of the compound was determined from the IC50 values using the following equation.
Ki calculation: IC50/1+(Agonist (TECK) conc. used in assay/EC50 of agonist (TECK) generated on day of experiment)
As a reminder, the pKi is the negative decadic logarithm of the Ki, by convention in mol/L. For `O=S(=O)(Nc1ccc(Cl)c2cc(-c3cccnc3)nn12)c1ccc(F)cc1` [Compound 115], the pKi was 6.19.

With `O=S(=O)(Nc1ccc(Cl)c2cc(-c3cccnc3)nn12)c1ccc(OC(F)(F)F)cc1` [Compound 112], the pKi is 7.04.

On to `CC(C)(C)c1ccc(S(=O)(=O)Nc2ccc(C#N)c3cc(-c4ccccn4)nn23)cc1` [Compound 193], for which the pKi is 7.09.

In the case of `O=S(=O)(Nc1ccnc2cc(-c3ccc(Cl)cc3)nn12)c1ccc(-c2cnco2)cc1` [Compound 90], the pKi was 5.86.

`COc1cc(-c2cc3c(Cl)ccc(NS(=O)(=O)c4ccc(C(C)C)cc4)n3n2)c[n+]([O-])c1` [Compound 126]: the pKi was 7.14.

For `CC(C)(C)c1cccc(S(=O)(=O)Nc2ccnc3cc(C4CC4)nn23)c1` [Compound 44], the negative-log Ki (pKi) was 5.85.

On to `CC(C)(C#N)c1ccc(S(=O)(=O)Nc2ccc(Cl)c3cc(-c4cccnc4)nn23)cc1` [Compound 123], for which the pKi is 6.66.

As to `CC(C)(C)c1ccc(S(=O)(=O)Nc2ccc(C#N)c3cc(-c4cncc(C#N)c4)nn23)cc1` [Compound 154, 4-(tert-butyl)-N-(4-cyano-2-(5-cyanopyridin-3-yl)pyrazolo[1,5-a]pyridin-7-yl)benzenesulfonamide], the negative logarithm of the Ki (pKi) was 7.12.

Consider `Cc1cc2nccc(NS(=O)(=O)c3ccc(N4CCOCC4)cc3)n2n1` [Compound 22], for which the pKi was 5.40.

Consider `O=S(=O)(Nc1ccnc2cc(C3CC3)nn12)c1cccc(OC(F)(F)F)c1` [Compound 50], for which the negative-log Ki (pKi) was 5.43.

For `Cc1cc2nccc(NS(=O)(=O)c3ccc(OC(F)F)cc3)n2n1` [Compound 33], the negative logarithm of the Ki (pKi) was 5.92.

For the molecule `O=S(=O)(Nc1ccc(Cl)c2cc(C3CC3)nn12)c1ccc(Cl)c(C(F)(F)F)c1` [Compound 108], the negative logarithm of the Ki (pKi) was 6.34.

Regarding `COc1cncc(-c2cc3c(Cl)ccc(NS(=O)(=O)c4ccc(C(F)(F)F)cc4)n3n2)c1` [Compound 128], the pKi is 6.77.

Consider `CC(C)(C)c1ccc(S(=O)(=O)Nc2ccc(Cl)c3cc(-c4cnccn4)nn23)cc1` [Compound 188], for which the pKi was 6.71.

Take `Cc1cc2nccc(NS(=O)(=O)c3ccc(C(F)(F)F)cc3)n2n1` [Compound 23]: the pKi was 5.77.

On to `Cc1ccncc1-c1cc2c(Cl)ccc(NS(=O)(=O)c3ccc(C(C)(C)C)cc3)n2n1` [Compound 208], for which the pKi was 7.06.

In the case of `O=S(=O)(Nc1ccc(Cl)c2cc(-c3ccc[n+]([O-])c3)nn12)c1ccc(OC(F)(F)F)cc1` [Compound 116], the pKi is 5.99.

In the case of `O=S(=O)(Nc1ccnc2cc(C3CC3)nn12)c1cccc(C(F)(F)F)c1` [Compound 39], the negative logarithm of the Ki (pKi) was 5.23.

Regarding `O=S(=O)(Nc1ccnc2cc(C3CC3)nn12)c1ccc(OC(F)F)cc1` [Compound 51], the pKi is 5.49.

Consider `CC(C)(C)c1ccc(S(=O)(=O)Nc2ccnc3cc(-c4ccc(C#N)cc4)nn23)cc1` [Compound 75, 4-(tert-butyl)-N-(2-(4-cyanophenyl)pyrazolo[1,5-a]pyrimidin-7-yl)benzenesulfonamide], for which the negative-log Ki (pKi) was 5.81.

With `Cc1cc2nccc(NS(=O)(=O)c3cccc(C(C)(C)C)c3)n2n1` [Compound 32], the pKi was 5.75.

Consider `COc1cncc(-c2cc3c(Br)ccc(NS(=O)(=O)c4ccc(C(C)(C)C)cc4)n3n2)c1` [Compound 160], for which the pKi was 6.77.

For `CC(C)(C)c1ccc(S(=O)(=O)Nc2ccnc3cc(-c4cccnc4)nn23)cc1` [Compound 62, 4-(tert-butyl)-N-(2-(pyridin-3-yl)pyrazolo[1,5-a]pyrimidin-7-yl)benzenesulfonamide], the pKi was 6.60.

In the case of `Cn1cc(-c2cc3c(Br)ccc(NS(=O)(=O)c4ccc(C(C)(C)C)cc4)n3n2)cn1` [Compound 165, 4-(tert-butyl)-N-(4-bromo-2-(1-methyl-1H-pyrazol-4-yl)pyrazolo[1,5-a]pyridin-7-yl)benzenesulfonamide], the negative logarithm of the Ki (pKi) is 6.89.

For the molecule `COc1ncccc1-c1cc2c(Cl)ccc(NS(=O)(=O)c3ccc(C(C)(C)C)cc3)n2n1` [Compound 201], the pKi was 6.72.
